The conditions of this data set: Liquid; for mass density: 298.15 K, 101.33 kPa, Pycnometric method.

Numbers after ± are expanded uncertainties.

A word on the mass density: it is the mass of a sample divided by its volume. Turning to `C1CC1C(C1CC1)C1CC1` [tricyclopropylmethane], the mass density was 850 ± 1 kg/m3. Besides, the Normal boiling temperature (Distillation) came to 160 ± 2 °C.
For the compound `O=[N+]([O-])C(C1CC1)(C1CC1)[N+](=O)[O-]` [dicyclopropyldinitromethane], the mass density is 1239.7 ± 1 kg/m3. Besides, the Normal boiling temperature (boiling in a capillary) was 290 ± 3 °C.

The values are drawn from the NIST ThermoML archive (doi:10.1016/j.jct.2018.12.040).
